Patent US7049415B2 (priority 2002, dated 2006)

Test system: HIV-1
Settings: cMAGI/MAGI cells; for IC50: 50% reduction in infectious virus titer; for IC90: 90% reduction in infectious virus titer
Excerpt: The number of stained nuclei can thus be interpreted as equal to the number of infectious virions in the challenge inoculum if there is only one round of infection prior to staining.

| Substance | IC50 | IC90 |
| --- | --- | --- |
| Pegylated T20 with PEG10K-butanoaldehyde [Example 2] | 0.266 µg/mL | 2.536 µg/mL |
| Pegylated T20 with mPEG10k-propionaldehyde [Example 3] | 0.261 µg/mL | 3.074 µg/mL |
